One series has as its system U2OS. The series can be described thus: Inhibition of autophagy in human U2OS cells stably expressing tfLC3. Format: functional.
The nature of series [1]: Cytotoxicity in human U2OS cells incubated for 24 to 48 hrs by CellTiter Glo assay. As to conditions: read-out: LD50 (the source's name). Format: cell-based. On the technique in general: In ATP-based viability assays light output follows the ATP content of the culture.
The target of a further series is mTORC1 (Homo sapiens, UniProt P42345). Format: protein-complex assay.
The target of a further series is mTORC2 (Homo sapiens, UniProt P42345). Format: protein-complex assay.
In the next series the test system is BT-474. The series can be described thus: Cytotoxicity against human BT474 cells assessed as reduction in cell viability after 48 hrs by MTT assay. Format: functional, cell-based. As to conditions: BT-474, 48 h. (Formazan colour is commonly taken as a measure of viable cells.)
The target in series [2] is T1, Serine/threonine-protein kinase ULK2 (Homo sapiens, UniProt Q8IYT8).
T1 sequence (Q8IYT8 whole entry): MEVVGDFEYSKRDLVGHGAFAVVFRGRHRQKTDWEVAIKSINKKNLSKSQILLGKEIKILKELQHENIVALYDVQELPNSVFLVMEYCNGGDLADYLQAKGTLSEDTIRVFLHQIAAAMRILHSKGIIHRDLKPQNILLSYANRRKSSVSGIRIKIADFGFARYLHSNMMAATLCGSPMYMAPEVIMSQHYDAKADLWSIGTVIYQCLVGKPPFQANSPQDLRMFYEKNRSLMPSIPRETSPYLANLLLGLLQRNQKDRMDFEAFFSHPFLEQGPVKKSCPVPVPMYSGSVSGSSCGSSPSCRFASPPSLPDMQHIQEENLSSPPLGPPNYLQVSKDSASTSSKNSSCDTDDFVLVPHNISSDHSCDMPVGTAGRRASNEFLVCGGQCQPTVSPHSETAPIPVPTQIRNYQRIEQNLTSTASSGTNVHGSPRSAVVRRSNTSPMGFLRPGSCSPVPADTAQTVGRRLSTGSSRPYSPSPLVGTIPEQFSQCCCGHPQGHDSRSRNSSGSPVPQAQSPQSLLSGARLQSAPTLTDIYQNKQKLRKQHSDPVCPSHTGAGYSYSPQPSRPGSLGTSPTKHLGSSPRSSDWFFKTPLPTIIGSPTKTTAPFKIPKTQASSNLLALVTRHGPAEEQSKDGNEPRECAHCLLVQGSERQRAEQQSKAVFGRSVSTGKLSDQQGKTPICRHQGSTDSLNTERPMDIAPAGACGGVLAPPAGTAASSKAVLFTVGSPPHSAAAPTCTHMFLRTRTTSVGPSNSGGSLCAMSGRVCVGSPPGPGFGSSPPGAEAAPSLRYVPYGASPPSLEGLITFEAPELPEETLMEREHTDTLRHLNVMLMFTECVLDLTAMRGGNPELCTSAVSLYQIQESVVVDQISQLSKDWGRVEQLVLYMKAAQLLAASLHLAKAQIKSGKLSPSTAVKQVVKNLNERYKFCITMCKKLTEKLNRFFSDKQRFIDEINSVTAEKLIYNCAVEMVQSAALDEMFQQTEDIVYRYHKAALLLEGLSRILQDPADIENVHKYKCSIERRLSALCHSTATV
In words: Inhibition of ULK2 (unknown origin).

The next series deals with MDA-MB-231. The series can be described thus: Cytotoxicity against human MDA-MB-231 cells assessed as reduction in cell viability at 750 nM after 24 hrs by MTT assay relative to control. Format: functional.
Series [3] in a line: Dissociation constant, pKa of compound. Format: physicochemical.
Series [4] addresses T2, Serine/threonine-protein kinase ULK1 (Homo sapiens, UniProt O75385).
T2 sequence (O75385 whole entry): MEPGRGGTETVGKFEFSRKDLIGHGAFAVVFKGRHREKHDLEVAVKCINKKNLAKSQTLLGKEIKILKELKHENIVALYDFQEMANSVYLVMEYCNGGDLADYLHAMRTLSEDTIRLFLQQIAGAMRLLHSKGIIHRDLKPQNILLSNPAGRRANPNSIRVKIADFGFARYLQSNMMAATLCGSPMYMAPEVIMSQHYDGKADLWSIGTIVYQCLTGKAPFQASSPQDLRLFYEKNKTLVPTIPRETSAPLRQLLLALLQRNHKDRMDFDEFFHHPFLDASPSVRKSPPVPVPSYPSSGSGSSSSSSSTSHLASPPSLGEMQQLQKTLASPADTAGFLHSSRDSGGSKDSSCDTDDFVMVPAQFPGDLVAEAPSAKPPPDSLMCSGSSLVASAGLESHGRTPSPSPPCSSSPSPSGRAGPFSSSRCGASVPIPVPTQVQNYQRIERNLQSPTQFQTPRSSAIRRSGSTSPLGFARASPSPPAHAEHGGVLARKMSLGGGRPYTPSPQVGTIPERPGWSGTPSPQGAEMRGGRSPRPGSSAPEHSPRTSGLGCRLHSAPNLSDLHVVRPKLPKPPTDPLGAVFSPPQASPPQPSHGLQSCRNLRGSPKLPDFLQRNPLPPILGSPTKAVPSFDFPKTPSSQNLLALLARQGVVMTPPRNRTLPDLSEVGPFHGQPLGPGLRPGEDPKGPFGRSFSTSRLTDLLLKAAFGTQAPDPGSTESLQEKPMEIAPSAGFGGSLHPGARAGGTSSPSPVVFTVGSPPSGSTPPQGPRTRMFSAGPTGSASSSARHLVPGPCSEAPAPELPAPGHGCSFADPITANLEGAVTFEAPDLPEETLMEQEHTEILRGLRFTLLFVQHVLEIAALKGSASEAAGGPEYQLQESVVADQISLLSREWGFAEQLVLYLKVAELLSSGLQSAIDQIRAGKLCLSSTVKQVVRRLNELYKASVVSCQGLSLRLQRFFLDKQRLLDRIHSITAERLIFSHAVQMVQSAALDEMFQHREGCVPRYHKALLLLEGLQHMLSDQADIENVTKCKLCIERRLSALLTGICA

In series [5] the target is T1, Serine/threonine-protein kinase ULK2.
In series [6] the target is T3, Phosphatidylinositol 4,5-bisphosphate 3-kinase catalytic subunit delta isoform (Homo sapiens, UniProt O00329).
T3 sequence (O00329 whole entry): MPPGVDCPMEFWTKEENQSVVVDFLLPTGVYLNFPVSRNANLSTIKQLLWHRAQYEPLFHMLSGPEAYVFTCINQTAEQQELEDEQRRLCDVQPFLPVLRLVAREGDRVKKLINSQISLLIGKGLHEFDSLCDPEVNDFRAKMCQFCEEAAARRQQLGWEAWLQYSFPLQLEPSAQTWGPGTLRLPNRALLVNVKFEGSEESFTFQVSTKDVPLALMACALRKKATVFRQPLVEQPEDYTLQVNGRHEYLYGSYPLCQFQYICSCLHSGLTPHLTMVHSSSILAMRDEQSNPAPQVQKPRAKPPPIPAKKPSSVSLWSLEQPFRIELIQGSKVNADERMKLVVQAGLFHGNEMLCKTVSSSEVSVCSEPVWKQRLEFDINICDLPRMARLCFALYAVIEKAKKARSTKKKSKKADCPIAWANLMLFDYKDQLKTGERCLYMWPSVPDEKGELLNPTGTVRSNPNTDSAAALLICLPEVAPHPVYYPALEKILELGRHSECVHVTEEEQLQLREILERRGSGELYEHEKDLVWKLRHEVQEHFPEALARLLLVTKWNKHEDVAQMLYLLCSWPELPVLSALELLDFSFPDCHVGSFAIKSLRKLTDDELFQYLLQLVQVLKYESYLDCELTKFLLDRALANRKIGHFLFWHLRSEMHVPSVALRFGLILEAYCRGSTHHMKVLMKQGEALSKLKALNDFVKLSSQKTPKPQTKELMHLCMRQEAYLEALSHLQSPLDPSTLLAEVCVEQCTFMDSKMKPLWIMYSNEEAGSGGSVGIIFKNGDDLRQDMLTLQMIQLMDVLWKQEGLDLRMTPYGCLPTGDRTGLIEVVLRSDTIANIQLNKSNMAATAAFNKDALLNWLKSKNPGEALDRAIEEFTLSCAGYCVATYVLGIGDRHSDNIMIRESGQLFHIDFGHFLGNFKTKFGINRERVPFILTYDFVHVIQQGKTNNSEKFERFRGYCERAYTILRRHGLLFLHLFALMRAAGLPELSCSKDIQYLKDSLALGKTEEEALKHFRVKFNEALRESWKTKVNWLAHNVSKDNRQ
In words: Inhibition of PI3K p110delta (unknown origin).

A further series concerns CNE-2. The series can be described thus: Antiproliferative activity against human CNE2 cells after 72 hrs by MTT assay. Format: functional, cell-based. As to conditions: CNE-2, 72 h.
Series [7] concerns the target Phosphatidylinositol 4,5-bisphosphate 3-kinase catalytic subunit alpha isoform (Homo sapiens, UniProt P42336). The series can be described thus: Inhibition of PI3K p110alpha (unknown origin).
Series [8] concerns the target Phosphatidylinositol 4,5-bisphosphate 3-kinase catalytic subunit beta isoform (Homo sapiens, UniProt P42338). In words: Inhibition of PI3K p110beta (unknown origin).
Series [9] addresses Phosphatidylinositol 4,5-bisphosphate 3-kinase catalytic subunit gamma isoform (Homo sapiens, UniProt P48736).
The target in series [10] is AMP-activated protein kinase (AMPK) alpha-1/beta-1/gamma-1 (Homo sapiens, UniProt P54619+Q13131+Q9Y478). In words: Activation of recombinant human AMPK alpha1/beta1/gamma1 (unknown origin) using SAMS peptide as substrate preincubated for 20 mins followed by substrate and gamma-[32]P-ATP addition and measured after 30 mins by liquid scintillation counting method. Format: protein-complex assay.
Sequence of AMP-activated protein kinase (AMPK) alpha-1/beta-1/gamma-1 (P54619 whole entry): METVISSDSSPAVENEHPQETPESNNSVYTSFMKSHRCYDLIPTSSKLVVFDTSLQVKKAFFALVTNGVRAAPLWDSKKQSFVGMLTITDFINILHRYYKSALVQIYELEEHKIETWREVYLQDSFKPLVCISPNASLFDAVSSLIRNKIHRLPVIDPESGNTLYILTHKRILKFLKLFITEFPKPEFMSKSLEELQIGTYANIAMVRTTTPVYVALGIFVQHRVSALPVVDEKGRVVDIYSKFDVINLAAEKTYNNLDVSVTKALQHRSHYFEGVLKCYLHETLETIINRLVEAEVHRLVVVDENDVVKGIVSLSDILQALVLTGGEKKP
Sequence of AMP-activated protein kinase (AMPK) alpha-1/beta-1/gamma-1 (Q9Y478 whole entry): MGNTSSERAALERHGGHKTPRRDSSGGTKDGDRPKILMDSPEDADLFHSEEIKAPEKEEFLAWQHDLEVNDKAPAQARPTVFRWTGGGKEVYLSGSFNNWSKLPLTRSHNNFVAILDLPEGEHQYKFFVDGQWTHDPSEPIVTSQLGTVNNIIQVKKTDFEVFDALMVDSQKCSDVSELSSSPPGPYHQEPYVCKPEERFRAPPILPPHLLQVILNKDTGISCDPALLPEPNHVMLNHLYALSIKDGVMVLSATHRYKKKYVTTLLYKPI
Sequence of AMP-activated protein kinase (AMPK) alpha-1/beta-1/gamma-1 (Q13131 whole entry): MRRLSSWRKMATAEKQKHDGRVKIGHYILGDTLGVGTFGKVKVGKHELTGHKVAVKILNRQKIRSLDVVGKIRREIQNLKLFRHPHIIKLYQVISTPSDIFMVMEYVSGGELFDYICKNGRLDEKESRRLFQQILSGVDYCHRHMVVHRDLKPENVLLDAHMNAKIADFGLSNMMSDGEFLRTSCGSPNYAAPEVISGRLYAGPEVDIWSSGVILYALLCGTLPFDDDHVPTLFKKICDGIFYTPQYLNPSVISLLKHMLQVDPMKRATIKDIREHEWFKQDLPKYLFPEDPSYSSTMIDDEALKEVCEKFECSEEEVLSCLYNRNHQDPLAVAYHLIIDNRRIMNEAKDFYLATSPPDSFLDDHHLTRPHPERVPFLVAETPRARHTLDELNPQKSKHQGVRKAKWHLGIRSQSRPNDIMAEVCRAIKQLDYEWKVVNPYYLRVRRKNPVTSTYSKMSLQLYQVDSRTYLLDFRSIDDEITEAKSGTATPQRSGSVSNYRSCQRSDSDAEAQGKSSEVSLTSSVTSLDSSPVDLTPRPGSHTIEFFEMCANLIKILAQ

Counter-ions that a name gives are not always drawn.

Sequence of Phosphatidylinositol 4,5-bisphosphate 3-kinase catalytic subunit gamma isoform (P48736 whole entry, canonical isoform): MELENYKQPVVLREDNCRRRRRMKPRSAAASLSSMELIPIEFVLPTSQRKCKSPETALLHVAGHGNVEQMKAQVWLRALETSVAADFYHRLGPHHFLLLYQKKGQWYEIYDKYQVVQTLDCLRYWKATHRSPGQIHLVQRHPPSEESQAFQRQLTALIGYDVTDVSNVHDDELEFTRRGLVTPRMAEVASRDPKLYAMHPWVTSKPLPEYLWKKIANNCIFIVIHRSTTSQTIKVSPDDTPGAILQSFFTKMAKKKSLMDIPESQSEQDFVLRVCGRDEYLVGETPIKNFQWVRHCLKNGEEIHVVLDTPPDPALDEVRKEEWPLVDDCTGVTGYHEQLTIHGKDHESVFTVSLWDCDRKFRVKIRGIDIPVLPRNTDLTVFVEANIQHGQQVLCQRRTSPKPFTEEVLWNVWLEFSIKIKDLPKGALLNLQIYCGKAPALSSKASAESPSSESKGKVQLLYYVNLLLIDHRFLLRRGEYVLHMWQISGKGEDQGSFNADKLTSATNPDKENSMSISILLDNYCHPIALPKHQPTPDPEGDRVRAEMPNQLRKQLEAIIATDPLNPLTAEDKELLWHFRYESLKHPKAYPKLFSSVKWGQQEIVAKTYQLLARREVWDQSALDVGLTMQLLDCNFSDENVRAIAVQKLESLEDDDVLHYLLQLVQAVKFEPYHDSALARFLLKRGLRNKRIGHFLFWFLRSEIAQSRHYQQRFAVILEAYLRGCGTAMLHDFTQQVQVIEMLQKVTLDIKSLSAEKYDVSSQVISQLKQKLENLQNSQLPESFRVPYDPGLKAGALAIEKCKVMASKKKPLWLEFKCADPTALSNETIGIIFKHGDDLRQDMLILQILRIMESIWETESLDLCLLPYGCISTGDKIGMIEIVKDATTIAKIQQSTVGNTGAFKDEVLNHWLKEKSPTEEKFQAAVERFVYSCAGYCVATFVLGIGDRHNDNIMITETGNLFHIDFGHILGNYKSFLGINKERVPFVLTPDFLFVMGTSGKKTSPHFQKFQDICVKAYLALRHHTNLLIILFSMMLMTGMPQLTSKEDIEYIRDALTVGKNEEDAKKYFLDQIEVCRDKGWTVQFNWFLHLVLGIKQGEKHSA
Sequence of Phosphatidylinositol 4,5-bisphosphate 3-kinase catalytic subunit beta isoform (P42338 whole entry, canonical isoform): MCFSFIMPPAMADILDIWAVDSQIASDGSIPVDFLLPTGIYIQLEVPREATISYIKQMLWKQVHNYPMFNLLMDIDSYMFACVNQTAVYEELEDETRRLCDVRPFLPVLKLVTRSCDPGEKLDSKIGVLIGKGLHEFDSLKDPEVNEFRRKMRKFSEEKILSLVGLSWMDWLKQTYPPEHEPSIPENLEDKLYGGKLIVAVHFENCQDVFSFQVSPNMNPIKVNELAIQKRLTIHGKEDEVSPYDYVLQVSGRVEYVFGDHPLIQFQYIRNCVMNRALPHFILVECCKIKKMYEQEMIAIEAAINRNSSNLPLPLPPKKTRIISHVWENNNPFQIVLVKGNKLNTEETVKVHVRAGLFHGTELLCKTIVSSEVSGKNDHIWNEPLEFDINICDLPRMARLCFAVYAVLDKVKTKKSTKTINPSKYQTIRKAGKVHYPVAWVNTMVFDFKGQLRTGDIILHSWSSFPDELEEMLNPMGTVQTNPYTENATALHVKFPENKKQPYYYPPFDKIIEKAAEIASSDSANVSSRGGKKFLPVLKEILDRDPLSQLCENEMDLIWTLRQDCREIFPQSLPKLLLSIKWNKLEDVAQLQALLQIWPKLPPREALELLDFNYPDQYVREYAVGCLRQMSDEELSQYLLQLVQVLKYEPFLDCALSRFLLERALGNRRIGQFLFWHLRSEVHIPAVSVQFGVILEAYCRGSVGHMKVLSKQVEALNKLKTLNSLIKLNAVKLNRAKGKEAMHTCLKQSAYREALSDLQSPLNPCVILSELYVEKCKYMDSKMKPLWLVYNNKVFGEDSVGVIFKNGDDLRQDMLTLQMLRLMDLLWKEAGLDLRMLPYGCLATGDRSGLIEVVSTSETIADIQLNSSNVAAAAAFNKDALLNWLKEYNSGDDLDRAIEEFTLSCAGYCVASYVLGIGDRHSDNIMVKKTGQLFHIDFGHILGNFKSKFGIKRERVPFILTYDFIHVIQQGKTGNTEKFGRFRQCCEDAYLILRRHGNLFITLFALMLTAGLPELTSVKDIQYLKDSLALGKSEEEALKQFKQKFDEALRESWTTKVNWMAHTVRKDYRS
Sequence of Phosphatidylinositol 4,5-bisphosphate 3-kinase catalytic subunit alpha isoform (P42336 whole entry, canonical isoform): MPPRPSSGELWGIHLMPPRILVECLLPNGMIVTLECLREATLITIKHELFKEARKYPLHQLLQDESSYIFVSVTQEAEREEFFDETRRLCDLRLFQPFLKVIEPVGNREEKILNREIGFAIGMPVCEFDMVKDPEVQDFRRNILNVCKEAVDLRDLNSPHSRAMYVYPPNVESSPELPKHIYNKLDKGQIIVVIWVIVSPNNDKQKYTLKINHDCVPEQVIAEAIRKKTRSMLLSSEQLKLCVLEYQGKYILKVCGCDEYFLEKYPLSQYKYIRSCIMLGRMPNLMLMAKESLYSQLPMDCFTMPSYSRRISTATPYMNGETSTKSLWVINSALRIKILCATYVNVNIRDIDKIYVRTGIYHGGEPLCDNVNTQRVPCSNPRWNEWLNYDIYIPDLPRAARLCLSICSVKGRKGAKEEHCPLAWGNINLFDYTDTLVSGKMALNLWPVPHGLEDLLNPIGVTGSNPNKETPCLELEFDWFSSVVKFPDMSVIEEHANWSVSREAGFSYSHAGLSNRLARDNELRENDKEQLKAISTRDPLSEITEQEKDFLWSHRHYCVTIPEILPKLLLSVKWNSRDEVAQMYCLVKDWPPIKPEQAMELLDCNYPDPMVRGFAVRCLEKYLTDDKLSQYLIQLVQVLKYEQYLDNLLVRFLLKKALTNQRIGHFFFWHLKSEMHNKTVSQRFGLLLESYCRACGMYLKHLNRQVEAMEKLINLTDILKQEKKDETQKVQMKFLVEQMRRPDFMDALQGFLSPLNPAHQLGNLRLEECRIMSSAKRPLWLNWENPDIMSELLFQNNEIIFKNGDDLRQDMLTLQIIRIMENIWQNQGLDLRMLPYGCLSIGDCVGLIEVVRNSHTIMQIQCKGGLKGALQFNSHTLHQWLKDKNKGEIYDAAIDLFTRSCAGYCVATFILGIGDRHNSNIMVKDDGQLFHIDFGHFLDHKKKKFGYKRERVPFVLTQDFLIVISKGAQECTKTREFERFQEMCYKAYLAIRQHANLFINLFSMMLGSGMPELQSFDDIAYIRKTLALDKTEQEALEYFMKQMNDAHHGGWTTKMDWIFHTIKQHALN

`CCN(CC)CCCC(C)Nc1c2ccc(Cl)cc2nc2ccc(OC)cc12` (centres undefined) [QUINACRINE] came in with an EC with U2OS of 0.2 µM. Moreover, the CC50 in series [1] amounted to 2.5 µM.
What is called IC50 is the point on the concentration scale where inhibition reaches its midpoint. For the compound `O=C(/C=C/c1ccc2c(c1)OCO2)CC1(O)C(=O)Nc2ccccc21` (centres undefined), the concentration for half-maximal inhibition (IC50) at mTORC1 and on mTORC2 was 0.001 to 0.005 µM each time.
On to `CCN(CC)CCCC(C)Nc1ccnc2cc(Cl)ccc12` (centres undefined) [CHLOROQUINE], for which, in the series with BT-474, the IC50 is > 1000 µM.
With `CNC(=O)c1ccccc1Oc1nc(Nc2cc(OC)c(OC)c(OC)c2)ncc1Br`, in series [2], the IC50 is 0.011 µM.
Consider `COC(=O)Nc1nc2cc(C(=O)c3ccc(F)cc3)ccc2[nH]1` [FLUBENDAZOLE], for which the Activity with MDA-MB-231 is 50%.
Broadly, the pKa is the pH at which an ionisable group is half protonated. Read a high pKa as a weaker acid or stronger base. Take `CN1CCN(Cc2cc(CNC3(c4ccccc4F)CCCC3)ccc2O)CC1`: in the series on BT-474, the IC50 is 23.5 to 30.1 µM. For the same compound, the pKa in series [3] was > 7.5.
For the compound `CN1CCc2cc(Nc3ncc(C4CC4)c(NCCCNC(=O)C4CCC4)n3)ccc2C1`, the IC50 was determined as 0.0029 µM in [4] and 0.0011 µM in series [5].
On to `COC(=O)Nc1ccc(-c2nc(N3CCOCC3)c3cnn(C4CCN(C(=O)OC)CC4)c3n2)cc1`, for which the concentration for half-maximal inhibition (IC50) against mTORC1 and at mTORC2 was 0.005 to 0.009 µM throughout.
Take `c1cnc2ccc(Nc3nc(NC4CC4)c4nc[nH]c4n3)cc2c1` [PUQUITINIB MESYLATE DIHYDRATE]: the IC50 turned out to be 0.0028 µM in series [6]; 5.2 µM in the series with CNE-2; 0.767 µM in [7]; 0.699 µM in series [8]; 0.0897 µM in [9].
Broadly, the EC50 is the midpoint of the concentration-response curve. As for `CC1(CN2C(=O)S/C(=C\c3ccc(NS(=O)(=O)c4ccc([N+](=O)[O-])c(C(F)(F)F)c4)cc3)C2=O)CCCCC1`, in series [10], the half-maximal effective concentration (EC50) is 0.3 µM.

The values above are taken from ChEMBL document CHEMBL4308824, “Design of Small Molecule Autophagy Modulators: A Promising Druggable Strategy” (J Med Chem, 2018).
